Laboratory results from PubChem BioAssay (NCI).
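These data come from cells grown in 96-well plates and exposed to compound for 48 hours at five concentrations. Here, GI50 denotes the concentration required for 50% inhibition of growth. Definition used: TGI = concentration required for complete inhibition of growth.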

How the values were obtained:
Experiment in all cases: NCI tumour cell line growth inhibition, 48 h
SK-MEL-28 melanoma = tested on: SK-MEL-28 melanoma
UO-31 renal = tested on: UO-31 renal
CCRF-CEM leukemia = tested on: CCRF-CEM leukemia
K-562 leukemia = tested on: K-562 leukemia
NCI-H460 lung = tested on: NCI-H460 lung
SF-539 CNS = tested on: SF-539 CNS
NCI/ADR-RES ovarian = tested on: NCI/ADR-RES ovarian
OVCAR-3 ovarian = tested on: OVCAR-3 ovarian
MCF7 breast = tested on: MCF7 breast
NCI-H226 lung = tested on: NCI-H226 lung
SR leukemia = tested on: SR leukemia
SF-295 CNS = tested on: SF-295 CNS
SW-620 colon = tested on: SW-620 colon
DU-145 prostate = tested on: DU-145 prostate
HCT-116 colon = tested on: HCT-116 colon
SNB-19 CNS = tested on: SNB-19 CNS
HS 578T breast = tested on: HS 578T breast
ACHN renal = tested on: ACHN renal
HOP-62 NSCLC = tested on: HOP-62 NSCLC
SK-MEL-5 melanoma = tested on: SK-MEL-5 melanoma
PC-3 prostate = tested on: PC-3 prostate
HOP-92 NSCLC = tested on: HOP-92 NSCLC
SK-OV-3 ovarian = tested on: SK-OV-3 ovarian
786-0 renal = tested on: 786-0 renal
UACC-62 melanoma = tested on: UACC-62 melanoma
RPMI-8226 leukemia = tested on: RPMI-8226 leukemia
COLO 205 colon = tested on: COLO 205 colon
MDA-MB-435 = tested on: MDA-MB-435
OVCAR-4 ovarian = tested on: OVCAR-4 ovarian
SK-MEL-2 melanoma = tested on: SK-MEL-2 melanoma
TK-10 renal = tested on: TK-10 renal
M14 melanoma = tested on: M14 melanoma
A549 NSCLC = tested on: A549 NSCLC
SNB-75 CNS = tested on: SNB-75 CNS
MALME-3M melanoma = tested on: MALME-3M melanoma
HT29 colon = tested on: HT29 colon
EKVX NSCLC = tested on: EKVX NSCLC
T-47D breast = tested on: T-47D breast
MOLT-4 leukemia = tested on: MOLT-4 leukemia
BT-549 breast = tested on: BT-549 breast
HL-60(TB) leukemia = tested on: HL-60(TB) leukemia
UACC-257 melanoma = tested on: UACC-257 melanoma
KM12 colon = tested on: KM12 colon
OVCAR-8 ovarian = tested on: OVCAR-8 ovarian
HCT-15 colon = tested on: HCT-15 colon
CAKI-1 renal = tested on: CAKI-1 renal
NCI-H23 lung = tested on: NCI-H23 lung
HCC-2998 colon = tested on: HCC-2998 colon
A498 renal = tested on: A498 renal
U251 CNS = tested on: U251 CNS
SN12C renal = tested on: SN12C renal
RXF 393 renal = tested on: RXF 393 renal
IGROV1 ovarian = tested on: IGROV1 ovarian
SF-268 CNS = tested on: SF-268 CNS
LOX IMVI melanoma = tested on: LOX IMVI melanoma
OVCAR-5 ovarian = tested on: OVCAR-5 ovarian
NCI-H522 lung = tested on: NCI-H522 lung
MDA-MB-231 breast = tested on: MDA-MB-231 breast

## CC1=C(C(=O)Nc2ccc3[nH]ncc3c2)C(c2ccc(F)cc2)N=C(c2ccc(C(F)(F)F)nc2)N1 (stereo unspecified)
SK-MEL-28 melanoma
  GI50: > 19.9 µM
  TGI: > 25 µM
UO-31 renal
  GI50: 3.35 µM
  TGI: 24.4 µM
CCRF-CEM leukemia
  GI50: 17 µM
  TGI: > 25 µM
K-562 leukemia
  GI50: 10 µM
  TGI: > 25 µM
NCI-H460 lung
  GI50: 11.8 µM
  TGI: > 25 µM
SF-539 CNS
  GI50: 7.61 µM
  TGI: > 25 µM
NCI/ADR-RES ovarian
  GI50: 18.5 µM
  TGI: > 25 µM
OVCAR-3 ovarian
  GI50: 9.07 µM
  TGI: > 25 µM
MCF7 breast
  GI50: 7.71 µM
  TGI: > 25 µM
NCI-H226 lung
  GI50: 3.99 µM
  TGI: > 25 µM
SR leukemia
  GI50: 6.43 µM
  TGI: > 25 µM
SF-295 CNS
  GI50: 9.81 µM
  TGI: > 25 µM
SW-620 colon
  GI50: 11.6 µM
  TGI: > 25 µM
DU-145 prostate
  GI50: > 25 µM
  TGI: > 25 µM
HCT-116 colon
  GI50: 13.2 µM
  TGI: > 25 µM
SNB-19 CNS
  GI50: > 23.6 µM
  TGI: > 25 µM
HS 578T breast
  GI50: 5.05 µM
  TGI: 20.2 µM
ACHN renal
  GI50: 13.3 µM
  TGI: > 25 µM
HOP-62 NSCLC
  GI50: 10.1 µM
  TGI: > 25 µM
SK-MEL-5 melanoma
  GI50: 7.45 µM
  TGI: > 25 µM
PC-3 prostate
  GI50: 13.1 µM
  TGI: > 25 µM
HOP-92 NSCLC
  GI50: 0.548 µM
  TGI: 7.6 µM
SK-OV-3 ovarian
  GI50: > 25 µM
  TGI: > 25 µM
786-0 renal
  GI50: 10.8 µM
  TGI: > 25 µM
UACC-62 melanoma
  GI50: 10.1 µM
  TGI: > 25 µM
RPMI-8226 leukemia
  GI50: 20 µM
  TGI: > 25 µM
COLO 205 colon
  GI50: > 25 µM
  TGI: > 25 µM
MDA-MB-435
  GI50: 4.97 µM
  TGI: 12 µM
OVCAR-4 ovarian
  GI50: 12.4 µM
  TGI: > 25 µM
SK-MEL-2 melanoma
  GI50: 9.49 µM
  TGI: > 25 µM
TK-10 renal
  GI50: > 24.1 µM
  TGI: > 25 µM
M14 melanoma
  GI50: 10.4 µM
  TGI: > 25 µM
A549 NSCLC
  GI50: 13.4 µM
  TGI: > 25 µM
SNB-75 CNS
  GI50: 2.4 µM
  TGI: 15.9 µM
MALME-3M melanoma
  GI50: > 16.5 µM
  TGI: > 25 µM
HT29 colon
  GI50: 11.5 µM
  TGI: > 25 µM
EKVX NSCLC
  GI50: 6.19 µM
  TGI: > 25 µM
T-47D breast
  GI50: > 20 µM
  TGI: > 25 µM
MOLT-4 leukemia
  GI50: 11.9 µM
  TGI: > 25 µM
BT-549 breast
  GI50: 5.28 µM
  TGI: 18.2 µM
HL-60(TB) leukemia
  GI50: 6.67 µM
  TGI: > 25 µM
UACC-257 melanoma
  GI50: 15.7 µM
  TGI: > 25 µM
KM12 colon
  GI50: 16.3 µM
  TGI: > 25 µM
OVCAR-8 ovarian
  GI50: 20.2 µM
  TGI: > 25 µM
HCT-15 colon
  GI50: 16.2 µM
  TGI: > 25 µM
CAKI-1 renal
  GI50: 11.9 µM
  TGI: > 25 µM
NCI-H23 lung
  GI50: 12.8 µM
  TGI: > 25 µM
HCC-2998 colon
  GI50: > 25 µM
  TGI: > 25 µM
A498 renal
  GI50: 2.23 µM
  TGI: 9.32 µM
U251 CNS
  GI50: 17.1 µM
  TGI: > 25 µM
SN12C renal
  GI50: > 22.9 µM
  TGI: > 25 µM
RXF 393 renal
  GI50: 4.31 µM
  TGI: > 23.5 µM
IGROV1 ovarian
  GI50: 5.66 µM
  TGI: > 25 µM
SF-268 CNS
  GI50: 10.7 µM
  TGI: > 25 µM
LOX IMVI melanoma
  GI50: 8.88 µM
  TGI: > 25 µM
OVCAR-5 ovarian
  GI50: > 25 µM
  TGI: > 25 µM
NCI-H522 lung
  GI50: 7.06 µM
  TGI: > 25 µM
MDA-MB-231 breast
  GI50: 10.1 µM
  TGI: > 25 µM
